Results as given in patent US20060286547A1, “Time-of-addition assay for identifying anti-viral compounds” (priority 2003, published 2006).

Test system: HIV-1 (strain 111B)
Assay: Time-of-addition assay with luminescent cells in 96- and 384-well plates
Format: cell-based
Conditions: early stages of addition; ATA 5 μM, AMD3100 and T20 1 μM; 96-well and 384-well plates; FIG. 6 and FIG. 7
Experimental: A MT4 cell line was used In the present example expressing a luciferase reporter gene under the control of a HIV-1-LTR promoter element. Cells were counted and a cell suspension of 500.000 ml or 350.000 ml was made for use in 96-well or 384 wells, respectively. The cells were centrifuged for 10 minutes at 400 g. Subsequently, cells were infected with at high multiplicity of infection with HIV-1 (strain 111B) at a host cell/virus titer of 1/1. Unabsorbed virus was removed by two washing steps in order to synchronize the infection. After the second washing step, cells were resuspended and the suspensions were distributed in the wells of a micro-titer plate in an amount of 95 μl or 36 μl in a 96-well or a 384 well format, respectively. At predefined time points 5 μl (96 well) and 4 μl (384 well) of compound was added. As compounds to be tested, reference compounds having well known mechanisms of action were included in the plates. […]
ATA was used in a concentration of 5 μM; AMD3100, T20 EFV ad SQV were used in a concentration of 1 μM and TMC143205 was used in a concentration of 1 μM. […] 100 μl Luc-lit™ substrate was added to each well and luminescence was monitored by processing the 96- and 384-well plates in a PerkinElmer-Viewlux™ within 30 minutes. HIV replication was quantified by measuring the luciferase signal.

Row | SMILES | inhibitory activity as a function of time of addition
1 | c1cc(CN2CCCNCCNCCCNCC2)ccc1CN1CCCNCCNCCCNCC1 [AMD3100] | strong inhibitory activity
2 | O=C(O)C1=CC(=C(c2ccc(O)c(C(=O)O)c2)c2ccc(O)c(C(=O)O)c2)C=CC1=O [ATA] | strong inhibitory activity
